Measurements as given in paper PMC6704710, “Preclinical evaluation of 3D185, a novel potent inhibitor of FGFR1/2/3 and CSF-1R, in FGFR-dependent and macrophage-dominant cancer models” (Journal of Experimental & Clinical Cancer Research : CR, 2019).

Key:
Test in all cases: Eurofins kinase panel
Type in all cases: biochemical
Conditions in all cases: read-out: Inhibition rate (%)
Met(M1268T)(h) = target: T1, Met(M1268T)(h) (Homo sapiens, UniProt P08581, M1250T)
T1 construct: purchased Eurofins (KinaseProfiler)
T1 sequence (P08581 956-1390 M1250T limits assumed): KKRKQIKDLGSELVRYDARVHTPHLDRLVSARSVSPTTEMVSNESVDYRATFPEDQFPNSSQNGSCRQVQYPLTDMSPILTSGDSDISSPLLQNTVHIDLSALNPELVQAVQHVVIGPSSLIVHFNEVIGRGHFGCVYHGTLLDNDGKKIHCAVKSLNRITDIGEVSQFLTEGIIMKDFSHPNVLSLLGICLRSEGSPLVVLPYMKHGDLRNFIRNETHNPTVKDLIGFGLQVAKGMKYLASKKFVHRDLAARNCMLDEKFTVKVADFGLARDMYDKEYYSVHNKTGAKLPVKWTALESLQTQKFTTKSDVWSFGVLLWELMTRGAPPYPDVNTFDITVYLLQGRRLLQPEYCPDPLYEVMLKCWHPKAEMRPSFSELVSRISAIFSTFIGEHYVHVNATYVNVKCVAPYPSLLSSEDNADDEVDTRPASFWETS
Procedure: (§1) Active FGFR1–4, VEGFR1, KDR, VEGFR3, PDGFRα and PDGFRβ proteins were purchased from Eurofins (Fremont, United States), and kinase activity was assessed using ELISA, as previously reported. […]. Increasing concentrations of ATP were diluted for the kinase reaction in the ATP competition assay. CSF-1R kinase activity was analyzed using the Z’-LYTE™ Kinase Assay Kit (Thermo Fisher, United States). The assay formats are described in the SelectScreen Kinase Profiling Service Zlyte protocol. IC50 values were calculated by dose-response curve fitting using Prism (Graph Pad).

CHK2(I157T)(h) = target: T2, CHK2(I157T)(h) (Homo sapiens, UniProt O96017, I157T)
T2 construct: purchased Eurofins (KinaseProfiler)
T2 sequence (O96017 whole entry I157T): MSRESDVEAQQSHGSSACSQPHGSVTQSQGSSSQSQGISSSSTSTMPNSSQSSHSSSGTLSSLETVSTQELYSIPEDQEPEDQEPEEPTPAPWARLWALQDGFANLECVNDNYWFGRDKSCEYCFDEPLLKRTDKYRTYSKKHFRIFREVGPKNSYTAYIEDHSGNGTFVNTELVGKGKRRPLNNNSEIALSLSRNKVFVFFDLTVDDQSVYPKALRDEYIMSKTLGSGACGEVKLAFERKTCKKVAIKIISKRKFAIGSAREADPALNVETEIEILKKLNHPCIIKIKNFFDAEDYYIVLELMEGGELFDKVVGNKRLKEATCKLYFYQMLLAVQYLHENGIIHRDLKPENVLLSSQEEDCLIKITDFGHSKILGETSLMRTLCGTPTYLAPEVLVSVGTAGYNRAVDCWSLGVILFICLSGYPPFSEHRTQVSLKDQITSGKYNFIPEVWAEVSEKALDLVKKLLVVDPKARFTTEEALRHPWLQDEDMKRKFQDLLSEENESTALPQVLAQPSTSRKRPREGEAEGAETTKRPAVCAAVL
Procedure: as §1

ARK5(h) = target: T3, ARK5(h) (Homo sapiens, UniProt O60285)
T3 construct: purchased Eurofins (KinaseProfiler)
T3 sequence (O60285 1-661): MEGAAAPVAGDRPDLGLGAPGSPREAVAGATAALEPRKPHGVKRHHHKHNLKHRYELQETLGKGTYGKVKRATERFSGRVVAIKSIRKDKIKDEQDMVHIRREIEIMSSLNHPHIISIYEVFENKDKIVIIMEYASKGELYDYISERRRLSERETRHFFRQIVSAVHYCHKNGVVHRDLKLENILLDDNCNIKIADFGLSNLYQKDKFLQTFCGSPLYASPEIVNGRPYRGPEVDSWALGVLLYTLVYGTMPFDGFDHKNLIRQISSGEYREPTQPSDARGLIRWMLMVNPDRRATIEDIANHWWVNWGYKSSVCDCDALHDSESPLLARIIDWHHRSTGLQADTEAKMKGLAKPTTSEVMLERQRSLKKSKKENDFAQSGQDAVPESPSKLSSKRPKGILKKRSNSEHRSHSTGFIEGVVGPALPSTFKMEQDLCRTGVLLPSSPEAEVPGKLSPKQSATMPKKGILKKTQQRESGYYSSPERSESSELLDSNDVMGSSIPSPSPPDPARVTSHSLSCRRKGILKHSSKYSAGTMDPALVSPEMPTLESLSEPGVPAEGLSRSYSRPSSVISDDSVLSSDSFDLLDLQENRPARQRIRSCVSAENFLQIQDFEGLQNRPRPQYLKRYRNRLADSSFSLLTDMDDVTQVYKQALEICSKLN
Procedure: as §1

PI3KC2α(h) = target: T4, PI3KC2α(h) (Homo sapiens, UniProt O00443)
T4 construct: purchased Eurofins (KinaseProfiler)
T4 sequence (O00443 whole entry): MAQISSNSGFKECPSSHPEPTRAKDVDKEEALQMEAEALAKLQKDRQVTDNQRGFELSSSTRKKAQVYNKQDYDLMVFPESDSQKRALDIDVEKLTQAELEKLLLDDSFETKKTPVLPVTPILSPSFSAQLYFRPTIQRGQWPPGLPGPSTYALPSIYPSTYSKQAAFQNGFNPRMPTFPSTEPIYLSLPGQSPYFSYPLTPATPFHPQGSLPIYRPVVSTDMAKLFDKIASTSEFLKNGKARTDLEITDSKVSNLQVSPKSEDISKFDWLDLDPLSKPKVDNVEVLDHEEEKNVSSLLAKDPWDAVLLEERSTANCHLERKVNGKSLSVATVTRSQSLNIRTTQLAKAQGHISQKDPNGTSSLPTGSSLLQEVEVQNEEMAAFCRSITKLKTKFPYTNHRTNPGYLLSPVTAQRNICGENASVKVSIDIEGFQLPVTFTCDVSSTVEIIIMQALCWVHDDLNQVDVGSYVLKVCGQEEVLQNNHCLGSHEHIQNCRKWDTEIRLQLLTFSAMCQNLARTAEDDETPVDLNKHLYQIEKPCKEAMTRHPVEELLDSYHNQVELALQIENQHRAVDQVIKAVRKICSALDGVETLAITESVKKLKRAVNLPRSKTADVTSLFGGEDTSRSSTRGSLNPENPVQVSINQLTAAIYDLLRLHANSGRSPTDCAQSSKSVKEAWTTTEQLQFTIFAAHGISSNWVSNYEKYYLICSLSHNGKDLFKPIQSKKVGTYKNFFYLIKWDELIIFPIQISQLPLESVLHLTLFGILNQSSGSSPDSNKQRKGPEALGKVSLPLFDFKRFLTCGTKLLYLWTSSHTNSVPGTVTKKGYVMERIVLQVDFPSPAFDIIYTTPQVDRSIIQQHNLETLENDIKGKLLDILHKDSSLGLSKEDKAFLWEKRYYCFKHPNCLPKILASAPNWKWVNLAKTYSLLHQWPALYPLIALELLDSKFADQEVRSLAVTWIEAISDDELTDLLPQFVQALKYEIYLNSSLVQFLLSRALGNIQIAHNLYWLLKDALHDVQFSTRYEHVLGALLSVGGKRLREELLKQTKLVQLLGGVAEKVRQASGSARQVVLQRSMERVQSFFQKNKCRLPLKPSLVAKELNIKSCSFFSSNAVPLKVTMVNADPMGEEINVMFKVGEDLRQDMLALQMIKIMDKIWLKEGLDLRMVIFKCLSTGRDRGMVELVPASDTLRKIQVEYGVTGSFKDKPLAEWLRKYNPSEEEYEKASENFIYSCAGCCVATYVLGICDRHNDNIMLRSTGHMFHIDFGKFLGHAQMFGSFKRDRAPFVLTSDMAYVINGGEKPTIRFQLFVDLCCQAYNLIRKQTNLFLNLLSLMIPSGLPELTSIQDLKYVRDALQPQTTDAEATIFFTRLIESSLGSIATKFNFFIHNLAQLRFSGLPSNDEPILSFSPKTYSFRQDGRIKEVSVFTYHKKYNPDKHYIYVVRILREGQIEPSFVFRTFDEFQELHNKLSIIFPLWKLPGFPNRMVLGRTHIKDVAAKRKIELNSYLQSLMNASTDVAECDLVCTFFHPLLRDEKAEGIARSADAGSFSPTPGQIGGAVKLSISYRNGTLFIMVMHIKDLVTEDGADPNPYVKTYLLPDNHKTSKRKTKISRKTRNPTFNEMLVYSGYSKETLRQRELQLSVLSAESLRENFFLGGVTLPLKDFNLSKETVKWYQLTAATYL
Procedure: as §1

GCN2(h) = target: T5, GCN2(h) (Homo sapiens, UniProt Q9P2K8)
T5 construct: purchased Eurofins (KinaseProfiler)
Procedure: as §1

PKBβ(h) = target: T6, PKBβ(h) (Homo sapiens, UniProt P31751)
T6 construct: purchased Eurofins (KinaseProfiler)
T6 sequence (P31751 whole entry): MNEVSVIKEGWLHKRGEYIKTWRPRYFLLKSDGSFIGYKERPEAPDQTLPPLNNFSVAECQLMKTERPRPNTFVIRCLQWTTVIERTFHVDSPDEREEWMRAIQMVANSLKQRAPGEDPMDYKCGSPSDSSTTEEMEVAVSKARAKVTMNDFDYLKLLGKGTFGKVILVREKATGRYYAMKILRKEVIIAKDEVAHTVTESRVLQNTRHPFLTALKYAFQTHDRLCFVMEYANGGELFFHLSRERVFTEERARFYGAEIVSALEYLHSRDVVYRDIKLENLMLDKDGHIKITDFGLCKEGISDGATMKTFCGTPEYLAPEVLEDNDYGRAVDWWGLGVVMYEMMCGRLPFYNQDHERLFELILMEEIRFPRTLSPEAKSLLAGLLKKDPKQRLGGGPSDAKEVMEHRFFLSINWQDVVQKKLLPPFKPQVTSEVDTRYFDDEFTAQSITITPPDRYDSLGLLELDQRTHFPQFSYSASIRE
Procedure: as §1

Axl(h) = target: T7, Axl(h) (Homo sapiens, UniProt P30530)
T7 construct: purchased Eurofins (KinaseProfiler)
T7 sequence (P30530 26-894): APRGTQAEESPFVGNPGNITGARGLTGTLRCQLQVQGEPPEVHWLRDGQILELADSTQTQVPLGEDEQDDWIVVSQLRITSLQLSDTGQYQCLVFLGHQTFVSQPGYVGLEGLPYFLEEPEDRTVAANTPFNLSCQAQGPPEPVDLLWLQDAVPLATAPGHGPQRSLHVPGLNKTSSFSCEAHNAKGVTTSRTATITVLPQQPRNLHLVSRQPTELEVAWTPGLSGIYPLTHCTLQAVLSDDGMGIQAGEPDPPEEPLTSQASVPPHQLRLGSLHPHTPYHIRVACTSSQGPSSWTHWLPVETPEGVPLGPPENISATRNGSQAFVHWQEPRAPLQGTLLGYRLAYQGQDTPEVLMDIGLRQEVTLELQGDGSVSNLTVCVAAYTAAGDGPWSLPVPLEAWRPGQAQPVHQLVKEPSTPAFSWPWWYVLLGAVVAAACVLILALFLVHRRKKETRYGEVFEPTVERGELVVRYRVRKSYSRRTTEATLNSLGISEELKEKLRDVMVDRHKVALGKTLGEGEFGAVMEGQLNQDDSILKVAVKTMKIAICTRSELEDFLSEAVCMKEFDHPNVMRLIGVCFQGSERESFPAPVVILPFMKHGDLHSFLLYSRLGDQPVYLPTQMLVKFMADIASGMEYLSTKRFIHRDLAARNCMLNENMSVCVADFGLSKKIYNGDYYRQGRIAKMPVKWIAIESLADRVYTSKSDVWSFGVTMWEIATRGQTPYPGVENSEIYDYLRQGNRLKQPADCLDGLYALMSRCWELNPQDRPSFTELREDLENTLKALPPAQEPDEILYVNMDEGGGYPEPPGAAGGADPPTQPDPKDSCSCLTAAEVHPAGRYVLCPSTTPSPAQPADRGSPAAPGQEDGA
Procedure: as §1

cKit(V560G)(h) = target: T8, cKit(V560G)(h) (Homo sapiens, UniProt P10721, V560G)
T8 construct: purchased Eurofins (KinaseProfiler)
T8 sequence (P10721 26-976 V560G): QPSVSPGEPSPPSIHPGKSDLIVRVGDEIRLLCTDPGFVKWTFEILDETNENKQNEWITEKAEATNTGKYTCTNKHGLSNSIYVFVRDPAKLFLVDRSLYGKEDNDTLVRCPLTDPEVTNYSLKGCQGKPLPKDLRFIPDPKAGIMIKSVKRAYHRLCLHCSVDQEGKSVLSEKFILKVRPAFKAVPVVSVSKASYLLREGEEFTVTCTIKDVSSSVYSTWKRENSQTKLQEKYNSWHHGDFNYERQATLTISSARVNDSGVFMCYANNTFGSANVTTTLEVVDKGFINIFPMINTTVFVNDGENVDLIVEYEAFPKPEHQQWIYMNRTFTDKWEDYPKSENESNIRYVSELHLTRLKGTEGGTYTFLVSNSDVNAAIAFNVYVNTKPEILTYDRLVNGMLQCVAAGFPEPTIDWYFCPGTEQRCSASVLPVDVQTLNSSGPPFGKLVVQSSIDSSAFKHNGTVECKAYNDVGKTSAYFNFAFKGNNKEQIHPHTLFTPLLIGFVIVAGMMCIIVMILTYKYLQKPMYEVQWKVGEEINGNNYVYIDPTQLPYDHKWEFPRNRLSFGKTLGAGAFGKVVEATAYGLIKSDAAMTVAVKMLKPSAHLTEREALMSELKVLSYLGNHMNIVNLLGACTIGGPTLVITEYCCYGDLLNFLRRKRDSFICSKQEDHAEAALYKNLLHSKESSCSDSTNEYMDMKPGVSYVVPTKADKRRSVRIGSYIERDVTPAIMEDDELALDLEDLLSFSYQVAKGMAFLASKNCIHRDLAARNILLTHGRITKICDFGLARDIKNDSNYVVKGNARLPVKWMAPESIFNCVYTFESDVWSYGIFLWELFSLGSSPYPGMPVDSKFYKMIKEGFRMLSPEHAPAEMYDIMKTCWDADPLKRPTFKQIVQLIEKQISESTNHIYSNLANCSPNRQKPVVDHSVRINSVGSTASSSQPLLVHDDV
Procedure: as §1

MARK1(h) = target: T9, MARK1(h) (Homo sapiens, UniProt Q9P0L2)
T9 construct: purchased Eurofins (KinaseProfiler)
T9 sequence (Q9P0L2 whole entry): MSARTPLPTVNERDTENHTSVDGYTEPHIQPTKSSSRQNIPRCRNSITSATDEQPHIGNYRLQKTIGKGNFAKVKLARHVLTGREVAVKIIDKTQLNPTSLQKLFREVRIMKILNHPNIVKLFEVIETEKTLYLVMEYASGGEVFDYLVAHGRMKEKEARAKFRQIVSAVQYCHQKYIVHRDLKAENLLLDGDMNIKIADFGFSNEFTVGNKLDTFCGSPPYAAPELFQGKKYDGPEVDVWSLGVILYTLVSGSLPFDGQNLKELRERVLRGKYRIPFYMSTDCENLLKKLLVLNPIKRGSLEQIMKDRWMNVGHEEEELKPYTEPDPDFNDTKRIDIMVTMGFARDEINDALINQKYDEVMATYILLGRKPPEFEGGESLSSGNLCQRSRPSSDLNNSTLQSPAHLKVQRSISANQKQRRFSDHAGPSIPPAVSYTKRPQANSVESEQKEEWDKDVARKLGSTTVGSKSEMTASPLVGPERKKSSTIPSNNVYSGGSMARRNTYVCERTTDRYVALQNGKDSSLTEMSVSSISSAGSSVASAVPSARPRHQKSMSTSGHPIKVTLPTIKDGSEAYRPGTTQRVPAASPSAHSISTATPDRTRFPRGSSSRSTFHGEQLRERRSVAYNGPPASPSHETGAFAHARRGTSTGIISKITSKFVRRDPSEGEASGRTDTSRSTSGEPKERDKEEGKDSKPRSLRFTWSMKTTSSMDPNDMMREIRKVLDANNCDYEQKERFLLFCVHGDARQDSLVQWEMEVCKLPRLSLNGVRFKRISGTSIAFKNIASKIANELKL
Procedure: as §1

MAPK1(h) = target: T10, MAPK1(h) (Homo sapiens, UniProt P27361)
T10 construct: purchased Eurofins (KinaseProfiler)
Procedure: as §1

**Q.** Which inhibition at 0.01 µM (Met(M1268T)(h); 10 nM) does the source give for `COc1cc(OC)c(Cl)c(-c2ccc3c(NC(=O)c4ccc(N5CCNC(C)(C)C5)cc4)n[nH]c3n2)c1Cl` [3D185] here?
**A.** -12%

**Q.** What about the inhibition at 0.1 µM (Met(M1268T)(h); 100 nM) of the same compound?
**A.** -11%

**Q.** And the inhibition at 1 µM (Met(M1268T)(h); 1000 nM)?
**A.** 15%

**Q.** What about the inhibition at 0.01 µM (CHK2(I157T)(h); 10 nM) of the same compound?
**A.** -6%

**Q.** And the inhibition at 0.1 µM (CHK2(I157T)(h); 100 nM)?
**A.** -5%

**Q.** And the inhibition at 1 µM (CHK2(I157T)(h); 1000 nM)?
**A.** -1%

**Q.** What about the inhibition at 0.01 µM (ARK5(h); 10 nM) of the same compound?
**A.** 11%

**Q.** And the inhibition at 0.1 µM (ARK5(h); 100 nM)?
**A.** 16%

**Q.** What about the inhibition at 1 µM (ARK5(h); 1000 nM) of the same compound?
**A.** 13%

**Q.** What about the inhibition at 0.01 µM (PI3KC2α(h); 10 nM) of the same compound?
**A.** -5%

**Q.** What about the inhibition at 0.1 µM (PI3KC2α(h); 100 nM) of the same compound?
**A.** 1%

**Q.** And the inhibition at 1 µM (PI3KC2α(h); 1000 nM)?
**A.** 1%

**Q.** And the inhibition at 0.01 µM (GCN2(h); 10 nM)?
**A.** 3%

**Q.** And the inhibition at 0.1 µM (GCN2(h); 100 nM)?
**A.** -12%

**Q.** What about the inhibition at 1 µM (GCN2(h); 1000 nM) of the same compound?
**A.** -49%

**Q.** And the inhibition at 0.01 µM (PKBβ(h); 10 nM)?
**A.** 15%

**Q.** And the inhibition at 0.1 µM (PKBβ(h); 100 nM)?
**A.** 29%

**Q.** And the inhibition at 1 µM (PKBβ(h); 1000 nM)?
**A.** 30%

**Q.** And the inhibition at 0.01 µM (Axl(h); 10 nM)?
**A.** -7%

**Q.** And the inhibition at 0.1 µM (Axl(h); 100 nM)?
**A.** -9%

**Q.** What about the inhibition at 1 µM (Axl(h); 1000 nM) of the same compound?
**A.** 26%

**Q.** What about the inhibition at 0.01 µM (cKit(V560G)(h); 10 nM) of the same compound?
**A.** 10%

**Q.** And the inhibition at 0.1 µM (cKit(V560G)(h); 100 nM)?
**A.** 38%

**Q.** What about the inhibition at 1 µM (cKit(V560G)(h); 1000 nM) of the same compound?
**A.** 71%

**Q.** And the inhibition at 0.01 µM (MARK1(h); 10 nM)?
**A.** -11%

**Q.** What about the inhibition at 0.1 µM (MARK1(h); 100 nM) of the same compound?
**A.** -13%

**Q.** What about the inhibition at 1 µM (MARK1(h); 1000 nM) of the same compound?
**A.** -25%

**Q.** What about the inhibition at 0.01 µM (MAPK1(h); 10 nM) of the same compound?
**A.** -5%

**Q.** What about the inhibition at 0.1 µM (MAPK1(h); 100 nM) of the same compound?
**A.** -6%

**Q.** What about the inhibition at 1 µM (MAPK1(h); 1000 nM) of the same compound?
**A.** 0%
